Results: patent US20250098679A1, “HERBICIDAL PYRIDONE DERIVATIVES” (SYNGENTA CROP PROTECTION AG, priority 2021, published 2025)

How the values were obtained:
Format in all cases: in vivo
Details in all cases: evaluated after 13 days
Setaria faberi (SETFA) [1] = test: Post-emergence Test, Setaria faberi (SETFA); parameters: key to percentage damage caused to the plant, SETFA (five-point scale): 5=81-100%, 4=61-80%, 3=41-60%, 2=21-40%, 1=0-20% damage
In short: (§1)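 Application was a spray of acetone/water (50:50) with 0.5% Tween 20 onto pots of test species sown in standard soil. Unless otherwise stated, the rate was 1000 g/ha. After 13 days under glasshouse conditions (24/16 °C, 65% humidity), injury was scored from 1 (0-20%) to 5 (81-100%).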

[2] = system: Amaranthus retoflexus (AMARE); test: Pre-emergence Test, Amaranthus retoflexus (AMARE)
[3] = system: Amaranthus palmeri (AMAPA); test: Pre-emergence Test, Amaranthus palmeri (AMAPA)
[4] = system: Ipomoea hederacea (IPOHE); test: Pre-emergence Test, Ipomoea hederacea (IPOHE)
[5] = system: Ipomoea hederacea (IPOHE); test: Post-emergence Test, Ipomoea hederacea (IPOHE); parameters: key to percentage damage caused to the plant, IPOHE (five-point scale): 5=81-100%, 4=61-80%, 3=41-60%, 2=21-40%, 1=0-20% damage
In short: as §1

Zea mays (ZEAMX) [6] = test: Pre-emergence Test, Zea mays (ZEAMX)
[7] = system: Echinochloa crus-galli (ECHCG); test: Pre-emergence Test, Echinochloa crus-galli (ECHCG)
[8] = system: Echinochloa crus-galli (ECHCG); test: Post-emergence Test, Echinochloa crus-galli (ECHCG); parameters: key to percentage damage caused to the plant, ECHCG (five-point scale): 5=81-100%, 4=61-80%, 3=41-60%, 2=21-40%, 1=0-20% damage
In short: as §1

[9] = system: Amaranthus palmeri (AMAPA); test: Post-emergence Test, Amaranthus palmeri (AMAPA); parameters: key: 5=81-100%, 4=61-80%, 3=41-60%, 2=21-40%, 1=0-20% damage
In short: as §1

[10] = system: Amaranthus retoflexus (AMARE); test: Post-emergence Test, Amaranthus retoflexus (AMARE); parameters: key to percentage damage caused to the plant, AMARE (five-point scale): 5=81-100%, 4=61-80%, 3=41-60%, 2=21-40%, 1=0-20% damage
In short: as §1

Zea mays (ZEAMX) [11] = test: Post-emergence Test, Zea mays (ZEAMX); parameters: key to percentage damage caused to the plant, ZEAMX (five-point scale): 5=81-100%, 4=61-80%, 3=41-60%, 2=21-40%, 1=0-20% damage
In short: as §1

Setaria faberi (SETFA) [12] = test: Pre-emergence Test, Setaria faberi (SETFA)

Compound: CCn1c(Cn2nc(C)cc2OC)cc(=O)c(C(=O)O)c1-c1ccc(Cl)c(Cl)c1 [Compound 127, 2-(3,4-dichlorophenyl)-1-ethyl-6-[(5-methoxy-3-methyl-pyrazol-1-yl)methyl]-4-oxo-pyridine-3-carboxylic acid]
- percentage damage caused to the plant, SETFA (five-point scale) (Setaria faberi (SETFA) [1]; 250 g/Ha): 3 (3=41-60%)
- percentage damage caused to the plant, SETFA (five-point scale) (Setaria faberi (SETFA) [1]; 1000 g/ha): 3 (3=41-60%)
- Pre-emergence Test AMARE, percentage damage caused to the plant (five-point scale) ([2]; 250 g/Ha (*)): 1 (1=0-20%)
- Pre-emergence Test AMARE, percentage damage caused to the plant (five-point scale) ([2]; 1000 g/ha): 2 (2=21-40%)
- Pre-emergence Test AMAPA, percentage damage caused to the plant (five-point scale) ([3]; 250 g/Ha (*)): 1 (1=0-20%)
- Pre-emergence Test AMAPA, percentage damage caused to the plant (five-point scale) ([3]; 1000 g/ha): 1 (1=0-20%)
- Pre-emergence Test IPOHE, percentage damage caused to the plant (five-point scale) ([4]; 250 g/Ha (*)): 0
- Pre-emergence Test IPOHE, percentage damage caused to the plant (five-point scale) ([4]; 1000 g/ha): 2 (2=21-40%)
- percentage damage caused to the plant, IPOHE (five-point scale) ([5]; 250 g/Ha): 1 (1=0-20%)
- percentage damage caused to the plant, IPOHE (five-point scale) ([5]; 1000 g/ha): 3 (3=41-60%)
- Pre-emergence Test ZEAMX, percentage damage caused to the plant (five-point scale) (Zea mays (ZEAMX) [6]; 250 g/Ha (*)): 0
- Pre-emergence Test ZEAMX, percentage damage caused to the plant (five-point scale) (Zea mays (ZEAMX) [6]; 1000 g/ha): 4 (4=61-80%)
- Pre-emergence Test ECHCG, percentage damage caused to the plant (five-point scale) ([7]; 250 g/Ha (*)): 1 (1=0-20%)
- Pre-emergence Test ECHCG, percentage damage caused to the plant (five-point scale) ([7]; 1000 g/ha): 3 (3=41-60%)
- percentage damage caused to the plant, ECHCG (five-point scale) ([8]; 250 g/Ha): 2 (2=21-40%)
- percentage damage caused to the plant, ECHCG (five-point scale) ([8]; 1000 g/ha): 4 (4=61-80%)
- percentage damage caused to the plant, AMAPA (five-point scale) ([9]; 250 g/Ha): 0
- percentage damage caused to the plant, AMAPA (five-point scale) ([9]; 1000 g/ha): 3 (3=41-60%)
- percentage damage caused to the plant, AMARE (five-point scale) ([10]; 250 g/Ha): 0
- percentage damage caused to the plant, AMARE (five-point scale) ([10]; 1000 g/ha): 2 (2=21-40%)
- percentage damage caused to the plant, ZEAMX (five-point scale) (Zea mays (ZEAMX) [11]; 250 g/Ha): 1 (1=0-20%)
- percentage damage caused to the plant, ZEAMX (five-point scale) (Zea mays (ZEAMX) [11]; 1000 g/ha): 3 (3=41-60%)
- Pre-emergence Test SETFA, percentage damage caused to the plant (five-point scale) (Setaria faberi (SETFA) [12]; 250 g/Ha (*)): 3 (3=41-60%)
- Pre-emergence Test SETFA, percentage damage caused to the plant (five-point scale) (Setaria faberi (SETFA) [12]; 1000 g/ha): 5 (5=81-100%)

Compound: CCn1c(Cn2ccc(SC)n2)cc(=O)c(C(=O)O)c1-c1ccc(Cl)c(Cl)c1 [Compound 35, 2-(3,4-dichlorophenyl)-1-ethyl-6-[(3-methylsulfanylpyrazol-1-yl)methyl]-4-oxo-pyridine-3-carboxylic acid]
- percentage damage caused to the plant, SETFA (five-point scale) (Setaria faberi (SETFA) [1]; 250 g/Ha): 4 (4=61-80%)
- percentage damage caused to the plant, SETFA (five-point scale) (Setaria faberi (SETFA) [1]; 1000 g/ha): 4 (4=61-80%)
- Pre-emergence Test AMARE, percentage damage caused to the plant (five-point scale) ([2]; 1000 g/ha): 1 (1=0-20%)
- Pre-emergence Test AMAPA, percentage damage caused to the plant (five-point scale) ([3]; 1000 g/ha): 2 (2=21-40%)
- Pre-emergence Test IPOHE, percentage damage caused to the plant (five-point scale) ([4]; 1000 g/ha): 4 (4=61-80%)
- percentage damage caused to the plant, IPOHE (five-point scale) ([5]; 250 g/Ha): 4 (4=61-80%)
- percentage damage caused to the plant, IPOHE (five-point scale) ([5]; 1000 g/ha): 2 (2=21-40%)
- Pre-emergence Test ZEAMX, percentage damage caused to the plant (five-point scale) (Zea mays (ZEAMX) [6]; 1000 g/ha): 5 (5=81-100%)
- Pre-emergence Test ECHCG, percentage damage caused to the plant (five-point scale) ([7]; 1000 g/ha): 5 (5=81-100%)
- percentage damage caused to the plant, ECHCG (five-point scale) ([8]; 250 g/Ha): 3 (3=41-60%)
- percentage damage caused to the plant, ECHCG (five-point scale) ([8]; 1000 g/ha): 4 (4=61-80%)
- percentage damage caused to the plant, AMAPA (five-point scale) ([9]; 250 g/Ha): 1 (1=0-20%)
- percentage damage caused to the plant, AMAPA (five-point scale) ([9]; 1000 g/ha): 1 (1=0-20%)
- percentage damage caused to the plant, AMARE (five-point scale) ([10]; 1000 g/ha): 3 (3=41-60%)
- percentage damage caused to the plant, ZEAMX (five-point scale) (Zea mays (ZEAMX) [11]; 250 g/Ha): 2 (2=21-40%)
- percentage damage caused to the plant, ZEAMX (five-point scale) (Zea mays (ZEAMX) [11]; 1000 g/ha): 3 (3=41-60%)
- Pre-emergence Test SETFA, percentage damage caused to the plant (five-point scale) (Setaria faberi (SETFA) [12]; 1000 g/ha): 4 (4=61-80%)

Compound: CCn1c(Cn2ccc(C(F)(F)F)n2)cc(=O)c(C(=O)OC)c1-c1ccc(Cl)cc1 [Compound 22, methyl 2-(4-chlorophenyl)-1-ethyl-4-oxo-6-[[3-(trifluoromethyl)pyrazol-1-yl]methyl]pyridine-3-carboxylate]
- percentage damage caused to the plant, SETFA (five-point scale) (Setaria faberi (SETFA) [1]; 250 g/Ha): 3 (3=41-60%)
- percentage damage caused to the plant, SETFA (five-point scale) (Setaria faberi (SETFA) [1]; 1000 g/ha): 3 (3=41-60%)
- Pre-emergence Test AMARE, percentage damage caused to the plant (five-point scale) ([2]; 250 g/Ha (*)): 0
- Pre-emergence Test AMARE, percentage damage caused to the plant (five-point scale) ([2]; 1000 g/ha): 0
- Pre-emergence Test AMAPA, percentage damage caused to the plant (five-point scale) ([3]; 250 g/Ha (*)): 0
- Pre-emergence Test AMAPA, percentage damage caused to the plant (five-point scale) ([3]; 1000 g/ha): 0
- Pre-emergence Test IPOHE, percentage damage caused to the plant (five-point scale) ([4]; 250 g/Ha (*)): 0
- Pre-emergence Test IPOHE, percentage damage caused to the plant (five-point scale) ([4]; 1000 g/ha): 0
- percentage damage caused to the plant, IPOHE (five-point scale) ([5]; 250 g/Ha): 1 (1=0-20%)
- percentage damage caused to the plant, IPOHE (five-point scale) ([5]; 1000 g/ha): 2 (2=21-40%)
- Pre-emergence Test ZEAMX, percentage damage caused to the plant (five-point scale) (Zea mays (ZEAMX) [6]; 250 g/Ha (*)): 0
- Pre-emergence Test ZEAMX, percentage damage caused to the plant (five-point scale) (Zea mays (ZEAMX) [6]; 1000 g/ha): 0
- Pre-emergence Test ECHCG, percentage damage caused to the plant (five-point scale) ([7]; 250 g/Ha (*)): 1 (1=0-20%)
- Pre-emergence Test ECHCG, percentage damage caused to the plant (five-point scale) ([7]; 1000 g/ha): 3 (3=41-60%)
- percentage damage caused to the plant, ECHCG (five-point scale) ([8]; 250 g/Ha): 0
- percentage damage caused to the plant, ECHCG (five-point scale) ([8]; 1000 g/ha): 3 (3=41-60%)
- percentage damage caused to the plant, AMAPA (five-point scale) ([9]; 250 g/Ha): 1 (1=0-20%)
- percentage damage caused to the plant, AMAPA (five-point scale) ([9]; 1000 g/ha): 1 (1=0-20%)
- percentage damage caused to the plant, AMARE (five-point scale) ([10]; 250 g/Ha): 1 (1=0-20%)
- percentage damage caused to the plant, AMARE (five-point scale) ([10]; 1000 g/ha): 1 (1=0-20%)
- percentage damage caused to the plant, ZEAMX (five-point scale) (Zea mays (ZEAMX) [11]; 250 g/Ha): 0
- percentage damage caused to the plant, ZEAMX (five-point scale) (Zea mays (ZEAMX) [11]; 1000 g/ha): 1 (1=0-20%)
- Pre-emergence Test SETFA, percentage damage caused to the plant (five-point scale) (Setaria faberi (SETFA) [12]; 250 g/Ha (*)): 4 (4=61-80%)
- Pre-emergence Test SETFA, percentage damage caused to the plant (five-point scale) (Setaria faberi (SETFA) [12]; 1000 g/ha): 4 (4=61-80%)
